Data from the NIST ThermoML archive (doi:10.1016/j.fluid.2015.10.034).

Conditions: Liquid, Frequency=8 MHz, Pulse-echo method

[2H]O[2H] [water-d2]
Conditions | speed of sound [m/s]
278.21 K, 150.19 kPa | 1326
278.21 K, 152.01 kPa | 1326
278.21 K, 5021.9 kPa | 1332.5
278.21 K, 5025.1 kPa | 1332.5
278.21 K, 9983.4 kPa | 1339.3
278.21 K, 9986 kPa | 1339.3
278.21 K, 15113 kPa | 1346.4
278.21 K, 15117 kPa | 1346.5
278.21 K, 20109 kPa | 1353.6
278.21 K, 20152 kPa | 1353.7
278.22 K, 2465.2 kPa | 1329.1
278.22 K, 2465.6 kPa | 1329.1
283.21 K, 154.9 kPa | 1347.8
283.21 K, 156.96 kPa | 1347.8
283.21 K, 2494.8 kPa | 1351.1
283.21 K, 2498 kPa | 1351.1
283.21 K, 5043.1 kPa | 1354.6
283.21 K, 5043.6 kPa | 1354.6
283.21 K, 9942.4 kPa | 1361.6
283.21 K, 9943.6 kPa | 1361.6
283.21 K, 15142 kPa | 1369
283.21 K, 15143 kPa | 1369.1
283.21 K, 20195 kPa | 1376.4
283.21 K, 20198 kPa | 1376.4
293.2 K, 179.82 kPa | 1384.1
293.2 K, 181.19 kPa | 1384.1
293.2 K, 2473.1 kPa | 1387.5
293.2 K, 2473.2 kPa | 1387.5
293.2 K, 5119.8 kPa | 1391.4
293.2 K, 5125.6 kPa | 1391.4
293.2 K, 10078 kPa | 1398.8
293.2 K, 10086 kPa | 1398.8
293.2 K, 15047 kPa | 1406.2
293.2 K, 15052 kPa | 1406.2
293.2 K, 20333 kPa | 1414.2
293.2 K, 20361 kPa | 1414.2
313.2 K, 109.61 kPa | 1432.5
313.2 K, 109.88 kPa | 1432.5
313.2 K, 2458.2 kPa | 1436.3
313.2 K, 2468.5 kPa | 1436.3
313.2 K, 5110.5 kPa | 1440.5
313.2 K, 5110.8 kPa | 1440.5
313.2 K, 15060 kPa | 1456.3
313.2 K, 20267 kPa | 1464.5
313.2 K, 20276 kPa | 1464.6
333.2 K, 195.58 kPa | 1456.2
333.2 K, 211.29 kPa | 1456.2
333.2 K, 2499.2 kPa | 1460.1
333.2 K, 2499.6 kPa | 1460.1
333.2 K, 5054.7 kPa | 1464.5
333.2 K, 5055 kPa | 1464.5
333.2 K, 10044 kPa | 1473
333.2 K, 10071 kPa | 1473.1
333.2 K, 20122 kPa | 1490
333.2 K, 20126 kPa | 1490
353.2 K, 142.15 kPa | 1460.6
353.2 K, 144.59 kPa | 1460.6
353.2 K, 2522.3 kPa | 1465.1
353.2 K, 2528 kPa | 1465
353.2 K, 5032.1 kPa | 1469.7
353.2 K, 5034.1 kPa | 1469.7
353.2 K, 10091 kPa | 1479
353.2 K, 10094 kPa | 1479.1
353.2 K, 15060 kPa | 1488
353.2 K, 15062 kPa | 1488.1
